Test [1] concerns Peritoneal Macrophages. Nature of the test: Steroid-induced MIF secretion by peritoneal macrophages. The format is cell-based, mouse. Conditions: 12 to 15 h. The protocol:
Cells were incubated for 12 to 15 h with various steroids (at concentrations ranging from 10^−6M to 10^−14M).
Samples were resolved on 18% SDS polyacrylamide gels under reducing conditions and transferred onto nitrocellulose membrane (Schleicher and Schuell, Keene, N.H.) at 50 V and 150 mA for 16 h. Membranes were blocked with 500 mM NaCl, 50 mM Tris-Base, pH 7.5 buffer containing 5% nonfat dry milk and 0.05% Tween-20 and incubated first with polyclonal anti-rMIF serum and then with horseradish peroxidase-conjugated goat anti-rabbit IgG antibody (each diluted 1:1000 in 500 mM NaCl, 50 mM Tris-Base, pH 7.5 buffer with 1% BSA). […] Incubations were 1 h each. MIF was visualized by development with chloronaphtol/H2O2 or with TMB substrate.

In test [2] the test system is Sprague-Dawley female rats. Nature of the test: Serum MIF after i.v. steroid injection. The format is in vivo, rat. Particulars: 10 mg/kg i.v., serum Western blotting. The protocol: Canulated Sprague-Dawley female rats were purchased from Zivic-Miller. Animals were housed with free access to food and water and were acclimatized for at least 2 days prior to experimentation. Rats were injected i.v. through the jugular vein with either dexamethasone (1, 10 or 20 mg/kg), or with RU38486 (mifepristone) (1 or 10 mg/kg), or with the two drugs together (both at 10 mg/kg, RU38486 was injected 15 min. before dexamethasone). Serum was collected 3, 6, and 9 hours post-steroids injection and analyzed by Western blotting with anti-MIF antibody.

In test [3] the test system is RAW macrophages. The test is described as follows: Inhibition of the macrophage MIF response to dexamethasone. The format is cell-based, mouse. Conditions: pretreatment and co-administration, 10^−6M. On the procedure: RAW 264.7 murine macrophages were obtained from the American Type Culture Collection (Rockville, Md.). Cells were grown in RPMI 1640 medium (Gibco, Grand Island, N.Y.), 10% heat-inactivated fetal bovine serum (FBS) (HyClone, Logan, Utah), 50 μg/ml of carbenicillin and gentamicin. […] After 3 h of incubation at 37° C. in a humidified atmosphere with 5% CO2, nonadherent cells were removed and wells were washed twice with RPMI/1% FBS. In some experiments designed to test for inhibition of MIF release, test compounds were then added to the culture media. For example, the cells were pre-treated with 20α-dihydrocorticol at a final concentration of 10^−6M. Cells then were incubated for 12-15 h with various steroids at concentrations ranging from 10^−6M to […] (e.q., dexamethasone), along with the desired test compound (e.g., 20α-dihydrocortisol) if any. At the end of experiment, cell culture media were collected and centrifuged (10 min at 800 g). Cell-conditioned media were concentrated 10-fold by membrane filtration (10 kDa cut-off) (Centricon-10, Amicon, Beverly, N.Y.).
Samples were resolved on 18% SDS polyacrylamide gels under reducing conditions and transferred onto nitrocellulose membrane (Schleicher and Schuell, Keene, N.H.) at 50 V and 150 mA for 16 h. […]

Test [4] concerns AtT-20 pituitary cells. The test is described as follows: MIF release from pituitary (AtT-20) cells (Western blotting). The format is cell-based, mouse. Particulars: 1-100 ng/ml. On the procedure:
AtT-20 cells were cultured for 24 hours in serum-free medium (enriched serum-free Joklik's medium from Gibco) containing various concentrations of LPS (E. coli LPS 0111:B4 from Sigma) at 0.5 μg/ml-50 μg/ml. […] This protein was transferred to polyvinylidene difluoride membrane and its primary N-terminal amino acid sequence was determined by automated gas-phase sequencing (Applied Biosystems).
MIF release from pituitary (AtT-20) cells was analyzed by Western blotting with anti-MIF antibody (FIG. 8). 1.5×10^5 pituitary cells were cultured serum-free for 18 h with different concentrations of LPS. After transfer, nitrocellulose membranes were incubated with rabbit anti-rMIF serum (1:1000 dilution) and bound antibody visualized with horseradish peroxidase-conjugated goat anti-rabbit antibody. 100 ng of rMIF was electrophoresed on the same gel for reference. Control supernatants (C) contained 1 μg/ml LPS that was added after removal of cells.

For test [5], the system named is thioglycollate-elicited peritoneal macrophages. Nature of the test: MIF secretion by thioglycollate-elicited peritoneal macrophages stimulated with LPS or IFNγ plus LPS. Conditions: IFNγ 100 IU/ml given 1 h prior to LPS. The format is cell-based, mouse. On the procedure:
After 3 h of incubation at 37° C. in a humidified atmosphere with 5% CO2, nonadherent cells were removed and wells were washed twice with RPMI/1% FBS. Cells then were incubated for 12 h with LPS (at concentrations ranging from 1 pg/ml to 1 μg/ml) or with cytokines (1 or 10 ng/ml for TNFα, IL-1β, and IL-6, and 10, 100 or 1000 IU/ml for IFNγ) diluted in RPMI/1% FBS. For time-course experiments, conditioned media of parallel cultures were removed at 3, 6, 9, 12 and 15 h intervals after LPS stimulation. […] Cells were incubated for 12 h either with LPS or with IFNγ plus LPS. When co-stimulated with IFNγ and LPS, cells were first incubated for an hour with IFNγ (100 IU/ml) before addition of LPS at the indicated concentrations. At the end of each experiment, cell-culture media were collected, centrifuged (10 min at 800 g), and supplemented with PMSF (1 mM). Supernatants then were concentrated 10-fold by membrane filtration (10 kD cut-off) (Centricon-10, Amicon, Beverly, N.Y.). […]
For Western blotting, samples were resolved on 18% SDS polyacrylamide gels under reducing conditions and transferred onto nitrocellulose membrane (Schleicher and Schuell, Keene, N.H.) at 50 V and 150 mA for 16 h. […] Serum MIF bands were quantified by laser densitometry (Shimadzu FDU-3, CS-9000U, Braintree, Mass.). Faint densitometric signals in the MIF region were detected in most sera prior to LPS administration (0 h). […]

With `C[C@]12CCC(=O)C=C1CC[C@@H]1[C@@H]2[C@@H](O)C[C@]2(C=O)[C@@H](C(=O)CO)CC[C@@H]12` [Aldosterone], in test [1], the “Range of Steroid Concentrations Inducing MIF in Peritoneal Macrophages” value (from here on “Range”) is 10^−8 to 10^−14 M. In the case of `CC#C[C@]1(O)CC[C@H]2[C@@H]3CCC4=CC(=O)CCC4=C3[C@@H](c3ccc(N(C)C)cc3)C[C@@]21C` [RU-38486 (mifepristone), mifepristone], the “MIF secretion in vivo” value in test [2] is reported as “induced MIF secretion”. Regarding `C[C@]12CCC(=O)C=C1CC[C@@H]1[C@@H]2[C@@H](O)C[C@@]2(C)[C@H]1CC[C@]2(O)[C@@H](O)CO` [4-pregnene-11β,17α,20α,21-tetrol-3-one], the “Effect on the MIF response to dexamethasone” value in test [3] is “attenuates or abolishes”. Also, the “Range” value in test [1] is reported as 10^−10 to 10^−14 M.

Take `C[C@]12CCC(=O)C=C1CC[C@@H]1[C@@H]2[C@@H](O)C[C@@]2(C)[C@H]1CC[C@]2(O)C(=O)CO` [Hydrocortisone]: the “Range” value in test [1] is 10^−8 to 10^−16 M.

As for `C[C@@H]1C[C@H]2[C@@H]3CCC4=CC(=O)C=C[C@]4(C)[C@@]3(F)[C@@H](O)C[C@]2(C)[C@@]1(O)C(=O)CO` [Dexamethasone], the “Range” value in test [1] is reported as 10^−8 to 10^−12 M. On the same count and under the same terms, in the case of `C[C@]12CC[C@H]3[C@@H](CCC4=CC(=O)CC[C@@]43C)[C@@H]1CC[C@@H]2O` [Testosterone] it was 10^−8 to 10^−14 M.

B1: IL-6: recombinant murine IL-6 (protein, UniProt P08505 25-211, looked up)
Interleukin-6: FPTSQVRRGDFTEDTTPNRPVYTTSQVGGLITHVLWEIVEMRKELCNGNSDCMNNDDALAENNLKLPEIQRNDGCYQTGYNQEICLLKISSGLLEYHSYLEYMKNNLKDNKKDKARVLQRDTETLIHIFNQEVKDLHKIVLPTPISNALLTDKLESQKEWLRTKTIQFILKSLEEFLKVTLRSTRQT
With B1, in test [4], the “MIF release from pituitary cells” value is reported as “not released”.

B2: IFNγ: recombinant murine IFNγ (protein, UniProt P01580 23-155, looked up)
Interferon gamma: HGTVIESLESLNNYFNSSGIDVEEKSLFLDIWRNWQKDGDMKILQSQIISFYLRLFEVLKDNQAISNNISVIESHLITTFFSNSKAKKDAFMSIAKFEVNNPQVQRQAFNELIRVVHQLLPESSLRKRKRSRC
In the case of B2, the “MIF release from pituitary cells” value in test [4] was “not released”. Also, the “Increase in LPS responsiveness on co-stimulation” value in test [5] is more than 1000 fold.

B3: TNFα: recombinant murine TNFα (protein)
chain: LRSSSQNSSDKPVAHVVANHQVEEQLEWLSQRANALLANGMDLKDNQLVVPADGLYLVYSQVLFKGQGCPDYVLLTHTVSRFAISYQEKVNLLSAVKSPCPKDTPEGAELKPWYEPIYLGGVFQLEKGDQLSAEVNLPKYLDFAESGQVYFGVIAL
For the molecule B3, in test [4], the “MIF release from pituitary cells” value is given as “not released”.

B4: IL-1β: recombinant murine IL-1β (protein, UniProt P10749 118-269, looked up)
Interleukin-1 beta: VPIRQLHYRLRDEQQKSLVLSDPYELKALHLNGQNINQQVIFSMSFVQGEPSNDKIPVALGLKGKNLYLSCVMKDGTPTLQLESVDPKQYPKKKMEKRFVFNKIEVKSKVEFESAEFPNWYISTSQAEHKPVFLGNNSGQDIIDFTMESVSS
B4: the “MIF release from pituitary cells” value in test [4] was “not released”.

The values above are taken from patent publication US7517523B2, “Anti-MIF antibodies” (Cytokine PharmaSciences, Inc., priority 1993, dated 2009).
